Results on 13 compounds are retold here after the OPERA property sets (Mansouri et al. 2018).

On to `CC(C)OC(=O)C(C(=O)OC(C)C)=C1SCCS1`, for which the logP came out at 2.88.

In turn, `Clc1nc(Cl)nc(Nc2ccccc2Cl)n1` yielded a logP of 3.88.

Compound `CCOP(=S)(OCC)Oc1cc(-c2ccccc2)on1` registered a logP of 3.73.

As for `CCO/N=C(\OC(=O)c1ccccc1)c1c(OC)ccc(Cl)c1OC`, the logP amounted to 3.73.

Compound `CCOP(=O)(Sc1ccccc1)Sc1ccccc1` showed a logP of 3.48.

For the compound `Cc1ccc(S(=O)(=O)Oc2c(C(=O)c3ccc(Cl)cc3Cl)c(C)nn2C)cc1`, the logP was found to be 3.9.

Regarding `CC(C)OP(=O)(OC(C)C)SCc1ccccc1`, the logP was 3.34.

In turn, `C#CCOS(=O)OC1CCCCC1Oc1ccc(C(C)(C)C)cc1` (stereo not drawn) registered a logP of 5.

In the case of `CCCOP(=S)(OCCC)SCC(=O)N1CCCCC1C` (stereo not drawn), the logP was 4.04.

`CC(C)N1C(=O)c2ccccc2NS1(=O)=O` displayed a logP of 2.34.

Compound `O=C(NC(=O)c1c(F)cccc1F)Nc1cc(Cl)c(F)c(Cl)c1F` gave a logP of 4.56.

For `CC12CC1(C)C(=O)N(c1cc(Cl)cc(Cl)c1)C2=O` (stereo not drawn), the logP worked out at 3.08.

The compound `OC(c1ccc(Cl)cc1)(c1ccc(Cl)cc1)C(Cl)(Cl)Cl` had a logP of 5.02.
